# Reference: PMC11434613, “The Remarkable and Selective In Vitro Cytotoxicity of Synthesized Bola-Amphiphilic Nanovesicles on Etoposide-Sensitive and -Resistant Neuroblastoma Cells” (Nanomaterials, 2024)
# “And” between values parts separate entries of the source, which are not always exact repeats. Identical values can stand only once.
# How the values were obtained:
# [1] = system: Human MRC-5 lung fibroblast cells; test: Presto Blue viability test on MRC-5 lung fibroblasts; format: cell-based; conditions: for IC50: concentration range 0.5–5 µM
# Protocol: (§1) Human MRC-5 lung fibroblast cells were used (ICLC-IRCCS San Martino, Genoa, Italy); cells were expanded in DMEM/F12 50%/50% (Dulbecco’s Modified Eagle Medium/Ham’s F12 50/50 Mix; Corning, Pisa, Italy; cat. n. 10-090-CV; ThermoFisher Scientific, Segrate (MI), Italy, supplemented with 10% fetal bovine serum (GIBCO-Invitrogen, GIBCO-ThermoFisher Life Science, Segrate, Italy, catalog number (cat. n.) 10270-098) and 2 mM glutamine (Euro-Clone; Pero, MI, Italy; cat. n. EC B3000D) at 37 °C under 5% CO2 aeration. After expansion, cells were washed three times with sterile phosphate buffered solution (PBS; VWR, Milano, Italy, cat. n. 392-0442), detached with 0.25% Trypsin solution (Corning; cat-25-050-CI), collected in complete medium, and centrifuged at 400× g for 12 min. The supernatant was discarded, and cells were suspended in PBS, counted, and centrifuged again as mentioned above. Cells were then resuspended in complete medium, seeded into 24-well plates (20,000 cells/well) and allowed to adhere to the plate for the next 24 h. Subsequently, non-adherent cells and the plating medium were discarded, and fresh standard medium or treatment medium were added. Treatment media contained BPPB at different concentrations (0.5, 1.0, 5.0, 25.0, 50.0, 75.0 and 100.0 μM); triplicate wells for each concentration were tested simultaneously, as well as controls. The medium was changed every day. Cells were photographed and assayed for viability prior to treatment (time 0; T0) and after 24, 48, and 72 h subsequently (T24, T48 and T72). Bright field images of each well/treatment were acquired using a Nikon Digital Sigh DS-5Mc camera (Nikon Europe B.V., Amstelveen, The Netherlands) mounted on an inverted Olympus CKX-41 microscope (Evident Europe GmbH, Segrate (Milan), Italy) (4×, 10× and 20× enlargements).
# (§2) Briefly, at the indicated time points, cells were washed twice with PBS and incubated in the dark a 37 °C for 4 h with fresh complete medium supplemented with 10% Presto Blue ^TM. Aliquots of the Presto Blue ^TM-containing medium were incubated in the same conditions, to be used as reaction blanks. Supernatants and blanks were then collected and analyzed using a Spectra MR multi-plate reader spectrophotometer (Dynex Technologies; Chantilly, VA, USA) at 570 and 600 nm. The results were calculated as the average of treatment replicas (triplicates) ± S.D., normalizing each 570 nm reading to its corresponding value at 600 nm, subtracting the average blank value, and normalizing the results at each time point to the initial reading at T0.
# [2] = as above; format: cell-based, human; conditions: human
# Protocol: as §1, §2
# [3] = In vitro hemolytic toxicity on red blood cells; format: cell-based, human; conditions: human
# Protocol: The hemolytic ratio was evaluated, as recently reported with slight changes, in EDTA-blood samples from four healthy donors from the San Martino Hospital Transfusion Centre. Specifically, red blood cells (RBCs) were isolated by diluting 0.2 mL of blood with 0.4 mL of phosphate-buffered saline (PBS) and centrifuging it for 5 min at 10,000× g. The pellet, consisting of RBCs, was washed 5 times with 1.0 mL PBS and finally resuspended with 2.0 mL PBS. The assay was carried out on 0.1 mL of resuspended RBCs added to 0.1 mL of H2O (positive control), 0.1 mL of PBS (negative control), or 0.1 mL of the different concentrations (0.1–50 µM) of the compound to be tested (BPPB). The samples were incubated for 60 min at 37 °C, and at the end, they were centrifuged for 5 min at 10,000× g. Finally, 0.1 mL of supernatant was transferred to a transparent 96-well plate and measured by a spectrophotometer (Dynex Technologies; Chantilly, VA, U.S.A.) at 595 nm. The hemolytic ratio was calculated using the following formula:Hemolytic ratio (%) = (OD TEST − OD NEGATIVE CONTROL)/(OD POSITIVE CONTROL − OD NEGATIVE CONTROL) × 100
# The hemolytic ratio percentage (%) caused by BPPB was assessed as recently reported with slight changes. In particular, EDTA-blood samples from four healthy donors were exposed to increasing concentrations of BPPB (0.1–50 µM).
smiles,measurement,setting,value
"c1ccc([P+](CCCCCCCCCCCC[P+](c2ccccc2)(c2ccccc2)c2ccccc2)(c2ccccc2)c2ccccc2)cc1 [BPPB, 1,1-(1,12-dodecanediyl)bis [1,1, 1]-triphenylphosphonium di-bromide]",Selectivity index (SI) = IC50 MRC-5 / IC50 HTLA-230,[1]; 24 h,11.68
same,Selectivity index (SI) = IC50 MRC-5 / IC50 HTLA-ER,[1]; 24 h,2.49
same,IC50,[1]; 24 h exposure,2.77 µM
same,Selectivity index (SI) = IC50 MRC-5 / IC50 HTLA-230,[1]; 48 h,3.77
same,Selectivity index (SI) = IC50 MRC-5 / IC50 HTLA-ER,[1]; 48 h,0.80
same,Selectivity index (SI) = IC50 MRC-5 / IC50 HTLA-230,[1]; 72 h,4.01 and 4.07
same,Selectivity index (SI) = IC50 MRC-5 / IC50 HTLA-ER,[1]; 72 h,1.11
same,Fold higher SI for HTLA-ER than that of ETO,"[1]; BPPB SI vs MRC-5, 24 h (2.49) against ETO SI (0.32)",7.8 fold
same,IC50,"[1]; Homo sapiens, MRC5, 24 h, 24 h exposure",2.8 µM
same,IC50,"[1]; Homo sapiens, MRC5, 48 h, 48 h exposure",0.74 ± 0.572 µM
same,IC50,"[1]; Homo sapiens, MRC5, 72 h, 72 h exposure",0.928 ± 0.896 µM
same,Effect on plated MRC-5 cells,"[1]; any concentration equal to or higher than 25 µM, within 24 h",detachment and death of all plated cells
same,selectivity ratio at 24 h,"[2]; 24 h, read-out: Selectivity index (SI) = IC50 MRC-5 / IC50 HTLA-ER",2.5
same,selectivity ratio at 48 h,"[2]; 48 h, read-out: Selectivity index (SI) = IC50 MRC-5 / IC50 HTLA-ER",~1
same,selectivity ratio at 72 h,"[2]; 72 h, read-out: Selectivity index (SI) = IC50 MRC-5 / IC50 HTLA-ER",~1
same,"viability at 48 h, 1 µM","[2]; MRC-5 lung fibroblast cells, 1.0 µM, 48 h, read-out: Percentage of viable MRC-5 cells with respect to seeded cells at T0",26.8%
same,"viability at 72 h, 1 µM","[2]; MRC-5 lung fibroblast cells, 1.0 µM, 72 h, read-out: Percentage of viable MRC-5 cells with respect to seeded cells at T0",30.6%
same,viability at 5 µM,"[2]; MRC-5 lung fibroblast cells, 5 µM, 48–72 h, read-out: Cell viability MRC-5",3%
same,"viability at 24 h, 5 µM","[2]; MRC-5 lung fibroblast cells, 5 µM, 24 h, read-out: Cell viability MRC-5",38%
same,"viability at 48 h, 5 µM","[2]; MRC-5 lung fibroblast cells, 5.0 µM, 48 h, read-out: Percentage of viable MRC-5 cells with respect to seeded cells at T0",2.78%
same,"viability at 72 h, 5 µM","[2]; MRC-5 lung fibroblast cells, 5.0 µM, 72 h, read-out: Percentage of viable MRC-5 cells with respect to seeded cells at T0",3.04%
same,selectivity ratio at 60 min,"[3]; NB cells 24 h exposure, read-out: Selectivity index (SI) = IC50 RBCs / IC50 HTLA-ER",> 10
same,viability at 60 min,"[3]; isolated red blood cells, concentration at which both NB cell populations were fully exterminated, read-out: RBC viability",98.4%
